Reference: patent US8575107B2, “Clusterin derived peptide” (Compugen Ltd., priority 2008, dated 2013)
Where a SMILES comes first, the peptide text is derived from it.

Assays:
[1] = target: T1, recombinant human clusterin (Homo sapiens, UniProt P10909); test: BIAcore surface plasmon resonance binding of CGEN-CL1 to clusterin; details: SPR, 312-5000 nM CGEN-CL1, immobilized clusterin
T1 construct: purchased Biovendor RD172034100
Source text: The capability of CGEN-CL1 to specifically bind to recombinant Clusterin protein was investigated using the BIACORE technology, measuring protein-protein interaction and binding affinity. The technology is based on surface plasmon resonance (SPR), an optical phenomenon that enables detection of unlabeled interactants in real time. The SPR-based biosensors can be used in determination of active concentration, screening and characterization in terms of both affinity and kinetics.
Peptide-protein interaction was analyzed using surface plasmon resonance. Analysis of the interaction between CGEN-CL1 [SEQ ID NO:1] and recombinant human clusterin (Biovendor, Modrice, Czech republic cat no: RD172034100) was conducted using the BIAcore biosensor (Pharmacia Biosensor, Uppsala, Sweden). Clusterin was immobilized directly to a CM5 sensor chip (2000 resonance units (RU)). Solution containing five different concentrations of CGEN-CL1 [SEQ ID NO:1] (312, 625, 1250, 2500 and 5000 nM) was injected into the sample chamber of the BIACORE device and the interaction was monitored for 5 minutes using surface plasmon resonance.
As a background, the solutions were also injected onto an empty flow cell with no immobilized ligand and the binding levels achieved were subtracted. Data were analyzed using BIAevaluation software.

A549 cells = test: MTT viability assay of A549 cells, CGEN-CL1 pre-incubated with helix partner; format: cell-based, human; details: 150 nM CGEN-CL1 pre-incubated 30 min with equimolar SEQ ID NO:5
Procedure: In order to evaluate whether the two computationally identified α-helices (CGEN-CL1 (SEQ ID NO: 1) and its helix partner (SEQ ID NO: 5)) bind to each other in the Clusterin protein, a co-incubation of the two peptides was analyzed for its ability to eliminate the biological activity of CGEN-CL1.
Pre-incubation for 30 minutes of 150 nM CGEN-CL1 peptide (SEQ ID NO:1) with an equimolar concentration of the helix partner (SEQ ID NO:5) was carried out at room temperature. CGEN-CL1 peptide (SEQ ID NO:1) alone, or the helix partner (SEQ ID NO:5) alone or the pre-incubated CGEN-CL1 peptide (SEQ ID NO:1) with helix partner (SEQ ID NO:5) were used for viability assay of A549 cells, using MTT assay as described in Example 2 herein.

[2] = tested on: cleaved PARP in PC3 cells; test: Detection of cleaved PARP by Western blot in PC3 cells; format: cell-based
Procedure: Apoptosis was analyzed either by cell cycle analysis or by PARP cleavage estimation. The amount of cleaved PARP is proportional to the amount of cells undergoing apoptosis (see for example Boulares A. H., et al., 1999, JBC 274:22932-22940).
FIG. 3 presents results of detection of cleaved PARP in PC3 cells treated with CGEN-CL1 combined with or without Paclitaxel. PC3 cells were treated with CGEN-CL1 (SEQ ID NO:1), alone or in combination with Paclitaxel, for 48, 72 and 96 hours. Cleaved PARP was detected in cell lysates by Western blot analysis. […] Elevation of the amount of cleaved PARP indicates an increase in apoptotic cells.

[3] = tested on: MCF-7 breast cancer cell lines; test: MTT assay, CGEN-CL1 and/or paclitaxel on MCF-7 cells; format: cell-based
Procedure: 20 μl of MTT (3-(4,5-Dimethyl-2-thiazolyl)-2,5-diphenyl-2H-tetrazolium bromide) solution (Sigma Cat#M5655, lot#085k5322, 1 gr was dissolved in 200 ml H2O and filtered, giving a final concentration of 5 mg/ml) was added to each well and incubated for 4 hours at 37° C. after which the medium was vacuumed and 100 μl of DMSO was added to each well. Absorbance was measured in an ELISA reader at 492 nm.
A549, PC3 and MCF7 cells were seeded at 6000, 8000 and 10,000 cells per well respectively in 150 μl of media (DMEM medium+5% FBS) in 96 well plates.
Paclitaxel (Sigma T7402, Lot. 036k1217, Mw 853.9, 5 mg dissolved in 585 μl DMSO to a stock concentration of 10 mM, stored at −20° C.) and/or CGEN-CL1 (1 mg dissolved in 250 μl of sodium bi-carbonate to a stock concentration of 4 mg/ml) were added to the wells in 25 μl of medium (final volume of 200 μl) as detailed in Table 3. The relative growth was normalized to controls where neither paclitaxel nor CGEN-CL1 was added to wells.
An MTT assay was performed as described above in Example 2.

T1 sequence (P10909 23-449): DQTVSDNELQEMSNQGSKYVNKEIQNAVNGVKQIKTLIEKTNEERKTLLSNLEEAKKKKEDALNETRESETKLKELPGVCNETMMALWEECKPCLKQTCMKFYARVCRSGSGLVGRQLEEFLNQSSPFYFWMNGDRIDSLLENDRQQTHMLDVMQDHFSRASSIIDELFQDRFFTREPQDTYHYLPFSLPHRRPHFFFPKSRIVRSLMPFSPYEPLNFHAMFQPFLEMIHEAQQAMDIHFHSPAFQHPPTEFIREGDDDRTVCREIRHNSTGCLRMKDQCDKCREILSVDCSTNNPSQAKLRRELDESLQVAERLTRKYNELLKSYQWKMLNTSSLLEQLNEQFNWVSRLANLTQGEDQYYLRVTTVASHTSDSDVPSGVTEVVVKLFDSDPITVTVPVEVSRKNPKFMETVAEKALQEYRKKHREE

For `CC[C@H](C)[C@H](NC(=O)[C@H](CCCNC(=N)N)NC(=O)[C@H](CC(=O)O)NC(=O)CNC(=O)[C@H](CC(N)=O)NC(=O)[C@H](CCSC)NC(=O)[C@H](Cc1c[nH]c2ccccc12)NC(=O)[C@H](Cc1ccccc1)NC(=O)[C@H](Cc1ccc(O)cc1)NC(=O)[C@H](Cc1ccccc1)NC(C)=O)C(=O)N[C@@H](CC(=O)O)C(=O)N[C@@H](CO)C(=O)N[C@@H](CC(C)C)C(=O)N[C@@H](CC(C)C)C(=O)N[C@@H](CCC(=O)O)C(=O)N[C@@H](CC(N)=O)C(=O)N[C@@H](CC(=O)O)C(=O)N[C@@H](CCCNC(=N)N)C(=O)N[C@@H](CCC(N)=O)C(=O)N[C@@H](CCC(N)=O)C(=O)N[C@H](C(N)=O)[C@@H](C)O` [CGEN-CL1] (Ac-FYFWMNGDRIDSLLENDRQQT-NH2), the “binding to parent protein clusterin” value [1] was “binds to its parent protein clusterin in a dose dependent manner”, the “biological effect (growth inhibition) of CGEN-CL1 in the presence of partner helix peptide” value (A549 cells) was “abolished” and the “amount of cleaved PARP” value ([2]; PC3 cells treated with Paclitaxel plus CGEN-CL1, 48 hours) was “dramatically enhanced the amount of cleaved PARP”. For the same compound, the “amount of cleaved PARP” value ([2]; PC3 cells, CGEN-CL1 alone, 48 hours) was “caused an enhancement in the amount of cleaved PARP”, the “amount of cleaved PARP” value ([2]; PC3 cells, CGEN-CL1 alone, 72 hours, administration at time zero and after 48 hours) was “significant increase in cleaved PARP” and the “Relative Growth” value ([3]; CGEN-CL1 7.1 nM + Paclitaxel 2.25 nM) was 0.62. The “Relative Growth” value ([3]; CGEN-CL1 7.1 nM + Paclitaxel 30.00 nM) was 0.31, the “Relative Growth” value ([3]; CGEN-CL1 7.1 nM alone) was 0.68 and the “Relative Growth” value ([3]; CGEN-CL1 22.3 nM + Paclitaxel 2.25 nM) was 0.53. The “Relative Growth” value ([3]; CGEN-CL1 22.3 nM + Paclitaxel 30.00 nM) was 0.28, the “Relative Growth” value ([3]; CGEN-CL1 22.3 nM alone) was 0.61 and the “Relative Growth” value ([3]; CGEN-CL1 63.2 nM + Paclitaxel 2.25 nM) was 0.46. For the same compound, the “Relative Growth” value ([3]; CGEN-CL1 63.2 nM + Paclitaxel 30.00 nM) was 0.24, the “Relative Growth” value ([3]; CGEN-CL1 63.2 nM alone) was 0.48 and the “Relative Growth” value ([3]; CGEN-CL1 185.9 nM + Paclitaxel 2.25 nM) was 0.45. The “Relative Growth” value ([3]; CGEN-CL1 185.9 nM + Paclitaxel 30.00 nM) was 0.25, the “Relative Growth” value ([3]; CGEN-CL1 185.9 nM alone) was 0.49 and the “Relative Growth” value ([3]; CGEN-CL1 557.6 nM + Paclitaxel 2.25 nM) was 0.42. The “Relative Growth” value ([3]; CGEN-CL1 557.6 nM + Paclitaxel 30.00 nM) was 0.23, the “Relative Growth” value ([3]; CGEN-CL1 557.6 nM alone) was 0.46 and the “effect of timing on cell growth” value ([3]; CGEN-CL1 added 24 hours after 30 nM paclitaxel vs concomitantly) was “need for lower concentrations of CGEN-CL1 to achieve the same effect”. The “effect on growth inhibition when given in combination” value ([3]; CGEN-CL1 and paclitaxel in combination) was “synergistic effect” and the “CGEN-CL1 concentration giving further inhibition of cell proliferation (as little as)” value ([3]; at 30 nM Paclitaxel) was 7.1 nM.
